Measurements as given in patent US20230263915A1, “RADIOLABELED COMPOUNDS” (King's College London, priority 2020, published 2023).
One block for each compound: values may come before it.

Assays:
left ventricle function = experiment: Echocardiography (cardiac ultrasound) in Doxorubicin minipump rats; type: in vivo
Experimental: In order to assess cardiac function all rats were subjected to a cardiac ultrasound (Vevo 770™, VisualSonics) one day prior to osmotic pump implantation and a second ultrasound one day prior to PET/CT imaging. Rats were anaesthetized with 2% isoflurane in 100% oxygen and maintained at 37° C. via a homoeothermic platform and rectal thermometer. High-resolution parasternal left ventricle (LV) long axis M-mode and B-mode images were obtained using a RMV710B transducer. Images were analysed offline using Vevo Software to determine LV function.
(§1) Male Wistar rats (280-300 g) were used in all experiments. Subcutaneous 7-day osmotic pumps (Alzet), containing either Doxorubicin (Cambridge Bioscience, 30 mg/kg cumulative dose) or vehicle (sterile 0.9% NaCl), were inserted into rats under 2% isoflurane in 100% oxygen.

[1] = Biodistribution in healthy Wistar rats; type: in vivo; details: for uptake by major organs (brain, heart, lung, spleen): i.v., 1, 5 and 30 min post-injection
Experimental: Male Wistar rats (290-355 g) were placed in a warm box at 37° C. before being transferred to an anaesthesia induction box under an O2 flow rate of 1 L/min with isofluorane levels of 5%. The anaesthetised rat was transferred to an anaesthesia mask with an O2 flow rate of 1 L/min with isofluorane levels of 2.5%. The radiotracer (0.5-2.2 MBq, 200-600 μL in maximum 5% EtOH in PBS) was injected intravenously via a cannula inserted into a tail vein. The animals were sacrificed by cervical dislocation at 1, 5, and 30 min post-injection (n=3/group). The heart was immediately removed and rinsed with saline to washout the blood. Organs of interest as well as blood and urine were collected and the radioactivity measured in a gamma counter.

[2] = Stability tests monitored by HPLC in ethanol / PBS; type: physicochemical
Experimental: (§2) Stability tests monitored by HPLC indicate that ^18F-FM074 is stable in both pure ethanol and 1% ethanol in PBS in the presence of ascorbic acid (0.01 mg/mL) for 4 h (not tested for longer). When incubated in rat serum at 37° C., 90% of ^18F-FM074 was intact in 1 hour (FIG. 3(A)). The stability of ^18F-FM108 in PBS was also determined and it was stable in 30 minutes (FIG. 3(B)).

[3] = Chemoselectivity study: oxidation by superoxide (KO2), radioHPLC; details: for oxidation by superoxide: 1 mg/mL KO2 in solution, 5 min, room temperature; for oxidation by superoxide in the presence of ascorbic acid: KO2 plus ascorbic acid 1 mg/mL
Experimental: (§3) The different oxidants were prepared in PBS (900 μL). The ^18F-labelled compound was formulated as 0.5-2 MBq in 100 μL ethanol and added to the oxidant PBS solution. The final reaction mixture contains the ^18F-labelled compound (0.5-2 MBq) in the presence of 100 μM oxidant in PBS with 10% ethanol (final volume 1000 μL). The reaction was kept at room temperature for 5 min, after which it was injected into the HPLC for analysis. • Superoxide (O2^−): The ^18F-labelled compound in ethanol (100 μL) was added to PBS (900 μL) and the resulting solution was then added to a vial containing solid KO2 (1 mg), to make up a reaction mixture with 10 mM O2^−. • Hydrogen peroxide (H202): H2O2 (10 mM stock solution, 10 μL) was diluted in PBS (890 μL) followed by addition of the ^18F-labelled compound in ethanol (100 μL), to a final concentration of 100 μM. • Hydroxyl radical (⋅OH): hydroxyl radicals were generated in situ by reacting hydrogen peroxide (H202, 100 μM) with iron II ([…]). FeSO2.7H2O (5 mM stock, 200 μL) was diluted in PBS (690 μL) and H2O2 (10 mM stock, 10 μL) was added, followed by the ^18F-labelled compound in 100 μL ethanol. • Iron (II) sulfate heptahydrate (Fe^2+) (control): FeSO2.7H2O (5 mM stock, 200 μL) was diluted to a final concentration of 1000 μM in PBS (700 μL), and the ^18F-labelled compound in 100 μL ethanol was added after. • tert-butyl hydroperoxide (TBHP): TBHP (10 mM stock, 10 μL) was diluted in PBS (890 μL) followed by addition of the ^18F-labelled compound in ethanol, to a final concentration of 100 μM. • Tert-butoxy radical (t-BuO⋅): t-butoxy radicals were generated in situ by reacting tert-butyl hydroperoxide (TBHP, 100 μM) with Fe^2+ (1000 μM). FeSO2.7H2O (5 mM stock, 200 μL) was diluted in PBS (690 μL) and TBHP (10 mM stock, 1 μL) was added, followed by the ^18F-labelled compound in ethanol. • Peroxynitrite (ONOO^−): peroxynitrite was generated in situ by spontaneous decomposition of 3-morpholinosydnomine (SIN-1) in solution. SIN-1 (5 mM stock, 1 μL) was diluted in PBS (989 μL) containing the ^18F-labelled compound in ethanol (10 μL), to give a final concentration of 50 μM ONOO^− in solution. • Nitric oxide (NO): NO was generated in situ by the NO-donor drug diethylamine NONOate (DEA/NO). A 33 mM stock solution of DEA/NO in 10 mM NaOH was used. 1 μL was diluted in PBS (990 μL) containing the ^18F-labelled compound in ethanol (10 μL), to give a final concentration of 33 μM DEA/NO in solution. The reaction was allowed to take place for 32 min at room temperature (˜20° C.) to allow DEA/NO to decompose into diethylamine and nitric oxide radical (NO) at a concentration of 50 μM, before HPLC analysis.

[4] = test system: xanthine oxidase/xanthine system; experiment: Oxidation by superoxide generated by the xanthine oxidase/xanthine system; type: biochemical; details: xanthine (1 mM) and catalase in PBS, 37° C., 5 min
[5] = test system: oxidative stress in heart (left ventricle); experiment: PET/CT imaging in rat model of Doxorubicin-induced cardiotoxicity; type: in vivo, rats
Experimental: Wistar rats were randomly divided into two groups and were subjected to the implantation of an Alzet Osmotic minipump containing either Doxorubicin (30 mg/kg) in saline (n=6) or saline only (n=4) as control. The minipump releases the drug at a constant rate over seven days, after which PET/CT imaging was performed.
as §1
Doxorubicin (30 mg/kg) or only vehicle (saline) was delivered to the animals using the osmotic minipump for seven days, after which PET/CT imaging was performed.
Animals were placed in a warm box at 37° C. before being transferred to an anaesthesia induction box under an 02 flow rate of 1 L/min with isofluorane levels of 5%. The anaesthetised rats were transferred to the PET bed and kept under anaesthesia with an O2 flow rate of 1 L/min with isofluorane levels of 2.5%. The radiotracer (0.5-2.2 MBq, 200-600 μL in maximum 5% EtOH in PBS) was injected intravenously via a cannula inserted into a tail vein. The injection start time coincided with the start of the PET acquisition in order to obtain dynamic tracer uptake information. The PET scans were acquired for 30 min, followed by a CT scan, after which the animals were sacrificed and organs harvested as for the biodistribution protocol. The PET data was analysed using VivoQuant.
Subsequently, both groups were subjected to 30 min PET/CT scans with chest cavity in the field of view on day 7 of the treatment. (FIG. 8) The PET images were analysed into three segments: from 0 to 3 min, 3 to 10 min, and 10 to 30 min post-injection of ^18F-FM074.

[6] = Stability in rat serum at 37° C. determined by radioHPLC; type: in vitro ADME; details: 1 hour
Experimental: as §2

[7] = LogD measurement, shake-flask partition between 1-octanol and PBS; type: physicochemical; details: 1-octanol / PBS pH 7.4
Experimental: The lipophilicity of ^18F-FM074 and ^18F-FM074-Ox was determined by measuring their logD values using a variation of the conventional shake-flask method, namely a conventional partition method between 1-octanol and phosphate buffered saline (PBS), pH 7.4. The 1-octanol was saturated with PBS before use. The radiotracer (1 μL) in ethanol was added to a mixture of PBS (200 μL) and 1-octanol (200 μL) in a 1.5 mL Eppendorf vial (n =6). The vial was sealed and shaken, then centrifuged at 3000 g for 10 min. A 100 μL aliquot from each layer was drawn was added to separate tubes. The radioactivity content of each fraction was measured in a gamma counter. The LogDoct/PBS as calculated as follows: log [(cpm in the 1-octanol layer-cpm 1-octanol blank)/(cpm in the PBS layer-cpm pbs blank)].

[8] = PET imaging study in healthy C57BL/6J mice; type: in vivo
Experimental: Wild type C57BL/6J mice (male, 26±2 g) were injected intravenously via the tail vein with [^18F]FM074 (1.2±1.1 MBq) in PBS containing sodium ascorbate (0.01 mg/mL). The animals were sacrificed either 3 min post-injection or after a 60 min PET (n=3/group). Organs and tissues of interest were harvested, weighed and the radioactivity measured in a gamma counter. Organ uptake was calculated as percentage injected dose per gram of tissue mass (% ID/g). Data are reported as mean±SD.
The radiotracer is excreted by both renal and hepatobilliary routes in less than 1 hour (FIG. 5).

[9] = Chemoselectivity study: oxidation by other ROS, radioHPLC; details: in vitro; for reactivity to other biologically relevant ROS: qualitative
Experimental: as §3, with “SIN-1 (5 mM stock, 1 μL) was diluted in PBS (989 μL) containing the ^18F-labelled compound in ethanol (10 μL), to give a final concentration of 50 μM ONOO^− in solution. • Nitric oxide (NO): NO was generated in situ by the NO-donor drug diethylamine NONOate (DEA/NO). A 33 mM stock solution of DEA/NO in 10 mM NaOH was used. 1 μL was diluted in PBS (990 μL) containing the ^18F-labelled compound in ethanol (10 μL), to give a final concentration of 33 μM DEA/NO in solution. The reaction was allowed to take place for 32 min at room temperature (˜20° C.) to allow DEA/NO to decompose into diethylamine and nitric oxide radical (NO) at a concentration of 50 μM, before HPLC analysis.” left out

[10] = healthy C57BL/6 mice, i.v., PET

- reduction of left ventricle ejection fraction vs baseline (left ventricle function; 30 mg/kg via 7-day osmotic minipump, day 6 compared to day 0): 15%
- left ventricle ejection fraction, Doxorubicin treated vs control groups (left ventricle function; ultrasound, FIG. 7): no significant difference
Compound: COc1cccc2c1C(=O)c1c(O)c3c(c(O)c1C2=O)C[C@@](O)(C(=O)CO)C[C@@H]3O[C@H]1C[C@H](N)[C@H](O)[C@H](C)O1 [Doxorubicin]

- clearance from the blood pool ([1]; 1 min post-injection): fast clearance
- time to clearance from major organs ([1]; hepatic and renal metabolism, excreted to small intestine and urine): under 30 min
- uptake by major organs (brain, heart, lung, spleen) [1]: rapid initial uptake
- uptake in bone and muscle ([1]; within 30 min): little uptake
- stability in 1% ethanol in PBS ([2]; 1% ethanol in PBS in the presence of ascorbic acid (0.01 mg/mL), for 4 h, HPLC): stable
- stability in pure ethanol ([2]; pure ethanol, for 4 h (not tested for longer), HPLC): stable
- oxidised tracer observed in radioHPLC chromatogram [4]: 53%
- intact tracer in rat serum [6]: 90%
- logD [7]: 1.00±0.08
- non-specific background retention ([8]; healthy C57BL/6 mice, heart and brain, PET): no non-specific background retention
- blood clearance [8, 10]: fast blood clearance
- time to excretion by renal and hepatobilliary routes [8, 10]: less than 1 hour
- tissue penetration [8, 10]: excellent tissue penetration
- uptake by heart and brain [8, 10]: rapidly taken up
- bone uptake (defluorination in vivo) ([8]; mice, after 1 hour): minimal
Compound: [18F]CCCN1c2ccccc2SC1c1ccccc1 (stereo not drawn) [^18F-FM074, [^18F]3-(3-fluoropropyl)-2-phenyl-2,3-dihydrobenzo[d]thiazole]
- oxidation by superoxide [3]: 58±8%
- oxidation by superoxide in the presence of ascorbic acid [3]: 31±5%
- ratio of standard uptake values LV to blood, Doxorubicin-treated vs control rats ([5]; 3-10 min post-injection, day 7 of Doxorubicin 30 mg/kg minipump): significantly (p<0.05) higher
- liver uptake ([5]; PET, Doxorubicin model rats, no significant difference between treated and control): high uptake
- heart uptake ex vivo after the PET/CT scan, treated vs control ([5]; ex vivo, after 30 min scan): no significant difference
- washout rate from the LV, Doxorubicin treated vs control ([5]; time-activity curves, FIG. 10): two-fold slower
- reactivity to other biologically relevant ROS [9]: little or no reactivity
- oxidation by other endogenous ROS ([9]; ⋅OH, H2O2, ⋅NO, ONOO^−): less than 10%

- clearance route ([1]; excreted through the urine): quickly cleared by the kidneys
- uptake by major organs (brain, heart, lung, spleen) [1]: significantly reduced uptake
- logD [7]: −1.00±0.04
Compound: [18F]CCC[n+]1c(-c2ccccc2)sc2ccccc21.[Cl-] [^18F-FM074-Ox, [^18F]-(3-fluoropropyl)-2-phenylbenzo[d]thiazol-3-ium chloride]

- stability in PBS ([2]; PBS, 30 minutes (FIG. 3(B))): stable
- logD [7]: 0.83±0.12
Compound: COc1ccc(C2Sc3ccccc3N2CCC[18F])cc1 (stereo not drawn) [^18F-FM108, [^18F]3-(3-fluoropropyl)-2-(4-methoxyphenyl)-2,3-dihydrobenzo[d]thiazole]
- oxidation by superoxide [3]: 54±4%
- oxidation by superoxide in the presence of ascorbic acid [3]: 38%
- reactivity to other biologically relevant ROS [9]: little or no reactivity
